In patent US11787839B2, “Targeting α2δ-1-bound glutamate receptors for treating diseases and disorders” (Board of Regents, The University of Texas System, priority 2017, dated 2023):

Columns and labels:
[1] = molecular target: presynaptic NMDARs of spinal lamina II neurons (Rattus norvegicus, UniProt P35439+Q00959+Q00960)
WT mice = assay: Paclitaxel-induced pain hypersensitivity in mice; format: in vivo, mouse
Protocol: To induce neuropathic pain, rats and mice were intraperitoneally injected with paclitaxel (2 mg/kg; TEVA Pharmaceuticals, North Wales, Pa.) every 2 days for a total of 4 injections (days 1, 3, 5 and 7; total dose, 8 mg/kg), as described previously (Polomano et al., 2001). Animals in the control group were intraperitoneally injected with the vehicle (Cremophor EL/ethanol, 1:1) on the same 4 days. The presence of tactile allodynia was confirmed 10 to 12 days after drug treatment. Intrathecal catheters were implanted in some paclitaxel-treated rats during isoflurane-induced anesthesia. […]
(§1) To assess the thermal sensitivity of rats, the were placed individually on the glass surface of a thermal testing apparatus (IITC Life Sciences, Woodland Hills, Calif.). […] The paw withdrawal latency was recorded with a timer, and the hindpaw was tested twice to obtain an average time. […] After the threshold temperature was recorded, the mice were immediately removed from the plate. The heat threshold measurement was repeated 30 min later, and the average of the 2 recorded temperatures was considered as the heat threshold. The cold threshold was measured by cooling the plate from 30° C. at a rate of 6° C./min until nocifensive behaviors were observed. […]

paclitaxel-treated rats = assay: Paclitaxel-induced pain hypersensitivity in rats; format: in vivo, rat; details: paclitaxel- vs vehicle-treated rats
Protocol: (§2) To induce neuropathic pain, rats and mice were intraperitoneally injected with paclitaxel (2 mg/kg; TEVA Pharmaceuticals, North Wales, Pa.) every 2 days for a total of 4 injections (days 1, 3, 5 and 7; total dose, 8 mg/kg), as described previously (Polomano et al., 2001). Animals in the control group were intraperitoneally injected with the vehicle (Cremophor EL/ethanol, 1:1) on the same 4 days. The presence of tactile allodynia was confirmed 10 to 12 days after drug treatment. Intrathecal catheters were implanted in some paclitaxel-treated rats during isoflurane-induced anesthesia. Briefly, a small puncture was made in the atlanto-occipital membrane of the cisterna magna and inserted a PE-10 catheter with the caudal tip reaching the lumbar enlargement of the spinal cord (Chen et al., 2014a; Xie et al., 2016).
Behavioral assessment of nociception: To measure tactile allodynia, mice or rats were individually placed on a mesh floor within a suspended chamber. […]
To quantify the mechanical nociceptive threshold in rats, the paw pressure (Randall-Selitto) test was conducted on the left hindpaw using an analgesiometer (Ugo Basile, Varese, Italy). […] When the rat withdrew its paw or vocalized, the pedal was immediately released, and the withdrawal threshold was recorded (Chen et al., 2014a). […]
as §1

α2δ-1 = α2δ-1 expression, α2δ-1-GluN1 complex and synaptosomal proteins after paclitaxel; format: in vivo, rat; details: paclitaxel- vs vehicle-treated rats
Protocol: as §2
Quantitative PCR: Rats were deeply anesthetized with 5% isoflurane, and the DRG and dorsal half of spinal cord tissues at the L5 and L6 levels were removed. Total RNA was extracted from the DRG and spinal cord tissues using TRIsure (Cat. #BIO-38032, Bioline, Taunton, Mass.). After treatment with RNase-free DNase (Cat. #79254, QIAGEN, Hilden, Germany), 500 ng RNA was used for reverse transcription with a RevertAid RT Reverse Transcription Kit (Cat. #K1619, Thermo Fisher Scientific, Waltham, Mass.). One μL of 5-times diluted cDNA was added to a 10-μL reaction volume with SYBR Green Real-Time PCR Mix (Cat. #A25780, Thermo Fisher Scientific). Real-time PCR was performed using a QuantStudio 7 Flex Real-Time PCR System (Applied Biosystems, Waltham, Mass.). The thermal cycling conditions used were: 1 cycle at 95° C. for 10 min, 40 cycles at 95° C. for 15 s, and 60° C. for 60 s. The following primers were used: α2δ-1 forward, […] (SEQ ID NO:60); α2δ-1 reverse, […] (SEQ ID NO:61); α2δ-2 forward, […] (SEQ ID NO:62); α2δ-2 reverse, […] (SEQ ID NO:63); α2δ-3 forward, […] (SEQ ID NO:64); α2δ-3 reverse, […] (SEQ ID NO:65); Gapdh forward, […] (SEQ ID NO:66); Gapdh reverse. […] (SEQ ID NO:67). Relative mRNA levels were calculated using the 2−ΔΔCT method and normalized to the Gapdh level in the same sample.
Coimmunoprecipitation using spinal cord tissue membrane extracts: Tissues from the dorsal halves of the rat spinal cord at the L5 and L6 levels were collected under isoflurane anesthesia and homogenized in ice-cold hypotonic buffer (20 mM Tris [pH 7.4], 1 mM CaCl2), 1 mM MgCl2, and protease inhibitors) for extracting membrane proteins. The nuclei and unbroken cells were removed by centrifugation at 300×g for 5 min, and the supernatant was centrifuged for 20 min at 21,000×g. The pellets were re-suspended and solubilized in immunoprecipitation buffer (50 mM Tris [pH7.4], 250 mM NaCl, 10% glycerol, 0.5% NP-40, 20 mM NaF, 1 mM Na3VO4, 10 mM N-ethylmaleimide, 1 mM phenylmethylsulfonyl fluoride, 2 mM benzamide, and protease inhibitors), and the soluble fraction was incubated at 4° C. overnight with Protein A/G beads ([…], Millipore, Darmstadt, Germany) prebound to mouse anti-GluN1 antibody (#75-272, 1:1000, NeuroMab, Davis, Calif.). Protein A/G beads prebound to mouse IgG were uses as the control. All samples were washed 3 times with immunoprecipitation buffer and then immunoblotted with rabbit anti-α2δ-1 (#ACC-015, 1:500, Alomone Labs, Jerusalem, Israel) and rabbit anti-GluN1 antibodies (#G8913, 1:1,000, Sigma-Aldrich, St. Louis, Mo.). The amount of the α2δ-1-GluN1 protein complex was calculated by normalizing the amount of α2δ-1 to that of GluN1 on the same gel. […]

Sequence of presynaptic NMDARs of spinal lamina II neurons (Q00959 20-1464 limits assumed, other chains not shown): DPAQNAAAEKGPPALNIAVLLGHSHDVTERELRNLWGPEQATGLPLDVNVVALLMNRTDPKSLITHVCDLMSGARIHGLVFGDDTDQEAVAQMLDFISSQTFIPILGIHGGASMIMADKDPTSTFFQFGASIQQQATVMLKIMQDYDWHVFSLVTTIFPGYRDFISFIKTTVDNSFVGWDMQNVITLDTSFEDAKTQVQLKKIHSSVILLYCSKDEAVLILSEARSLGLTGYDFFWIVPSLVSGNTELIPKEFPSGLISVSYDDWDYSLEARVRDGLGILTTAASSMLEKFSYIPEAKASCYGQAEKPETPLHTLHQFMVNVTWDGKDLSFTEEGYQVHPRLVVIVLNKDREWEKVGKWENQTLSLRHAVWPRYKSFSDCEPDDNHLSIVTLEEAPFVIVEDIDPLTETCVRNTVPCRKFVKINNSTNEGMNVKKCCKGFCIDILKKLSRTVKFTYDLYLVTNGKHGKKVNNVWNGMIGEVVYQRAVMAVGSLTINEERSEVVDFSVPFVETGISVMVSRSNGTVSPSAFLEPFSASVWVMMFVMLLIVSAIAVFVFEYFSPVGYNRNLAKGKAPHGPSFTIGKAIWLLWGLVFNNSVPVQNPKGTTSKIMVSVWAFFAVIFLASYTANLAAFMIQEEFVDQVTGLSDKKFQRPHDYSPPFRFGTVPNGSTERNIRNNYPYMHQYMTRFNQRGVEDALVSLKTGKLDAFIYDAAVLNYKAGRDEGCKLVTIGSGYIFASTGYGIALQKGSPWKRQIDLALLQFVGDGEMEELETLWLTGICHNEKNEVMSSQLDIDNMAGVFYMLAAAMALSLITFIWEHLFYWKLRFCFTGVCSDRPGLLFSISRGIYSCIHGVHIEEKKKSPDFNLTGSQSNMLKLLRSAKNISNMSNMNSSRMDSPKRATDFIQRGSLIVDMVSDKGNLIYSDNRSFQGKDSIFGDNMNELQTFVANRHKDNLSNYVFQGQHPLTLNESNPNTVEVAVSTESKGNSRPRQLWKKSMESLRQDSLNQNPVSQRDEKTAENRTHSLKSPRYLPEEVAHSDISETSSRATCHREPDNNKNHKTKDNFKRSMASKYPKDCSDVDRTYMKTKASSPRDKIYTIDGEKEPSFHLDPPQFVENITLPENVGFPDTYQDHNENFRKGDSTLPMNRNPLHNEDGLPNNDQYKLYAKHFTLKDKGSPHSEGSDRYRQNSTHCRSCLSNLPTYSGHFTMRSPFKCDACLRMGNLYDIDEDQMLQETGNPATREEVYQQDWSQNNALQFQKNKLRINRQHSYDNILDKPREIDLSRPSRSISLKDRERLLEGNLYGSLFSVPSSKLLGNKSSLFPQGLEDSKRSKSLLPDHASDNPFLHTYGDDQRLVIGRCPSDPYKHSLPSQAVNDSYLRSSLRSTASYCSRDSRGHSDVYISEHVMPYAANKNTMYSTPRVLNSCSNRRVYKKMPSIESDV
Sequence of presynaptic NMDARs of spinal lamina II neurons (Q00960 27-1482, other chains not shown): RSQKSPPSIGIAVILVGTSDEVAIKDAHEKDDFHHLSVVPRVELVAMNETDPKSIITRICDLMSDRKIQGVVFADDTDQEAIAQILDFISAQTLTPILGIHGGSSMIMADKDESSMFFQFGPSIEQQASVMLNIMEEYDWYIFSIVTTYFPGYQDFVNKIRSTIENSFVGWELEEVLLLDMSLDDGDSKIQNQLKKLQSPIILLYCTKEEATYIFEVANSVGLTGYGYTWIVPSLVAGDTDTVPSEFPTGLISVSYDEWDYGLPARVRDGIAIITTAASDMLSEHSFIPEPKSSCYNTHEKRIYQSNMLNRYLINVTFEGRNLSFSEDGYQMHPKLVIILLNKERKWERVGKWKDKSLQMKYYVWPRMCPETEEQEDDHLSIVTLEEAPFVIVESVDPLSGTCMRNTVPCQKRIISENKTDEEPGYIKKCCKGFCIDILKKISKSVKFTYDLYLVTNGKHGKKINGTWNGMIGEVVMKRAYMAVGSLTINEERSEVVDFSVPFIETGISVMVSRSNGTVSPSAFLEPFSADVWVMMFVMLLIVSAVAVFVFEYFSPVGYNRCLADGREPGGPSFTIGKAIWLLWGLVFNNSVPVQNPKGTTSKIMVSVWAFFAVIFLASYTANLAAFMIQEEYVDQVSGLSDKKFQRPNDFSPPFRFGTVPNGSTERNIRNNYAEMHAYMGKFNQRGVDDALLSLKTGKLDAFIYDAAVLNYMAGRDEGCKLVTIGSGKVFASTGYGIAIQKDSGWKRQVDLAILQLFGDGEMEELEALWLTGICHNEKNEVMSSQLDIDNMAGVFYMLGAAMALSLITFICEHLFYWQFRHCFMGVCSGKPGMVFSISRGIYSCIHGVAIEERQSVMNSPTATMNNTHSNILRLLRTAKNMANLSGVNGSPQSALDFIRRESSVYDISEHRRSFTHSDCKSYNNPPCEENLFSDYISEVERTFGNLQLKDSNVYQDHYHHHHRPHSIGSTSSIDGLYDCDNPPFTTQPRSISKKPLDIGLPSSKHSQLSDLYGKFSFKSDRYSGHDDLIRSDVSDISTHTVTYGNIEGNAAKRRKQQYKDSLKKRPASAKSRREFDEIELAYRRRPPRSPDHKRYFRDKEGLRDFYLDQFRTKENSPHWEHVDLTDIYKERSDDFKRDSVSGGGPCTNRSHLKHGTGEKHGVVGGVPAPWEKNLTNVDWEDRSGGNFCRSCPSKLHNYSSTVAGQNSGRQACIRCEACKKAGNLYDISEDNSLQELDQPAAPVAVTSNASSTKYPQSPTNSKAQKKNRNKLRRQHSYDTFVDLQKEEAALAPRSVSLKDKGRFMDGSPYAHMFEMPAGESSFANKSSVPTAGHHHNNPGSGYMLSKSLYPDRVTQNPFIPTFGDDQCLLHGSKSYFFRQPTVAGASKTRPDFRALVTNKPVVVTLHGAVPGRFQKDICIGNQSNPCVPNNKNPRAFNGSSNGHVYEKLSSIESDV

baseline amplitude of evoked monosynaptic EPSCs [1]: significantly larger | baseline frequency of mEPSCs in lamina II neurons [1]: significantly higher | paired-pulse ratio (PPR) in lamina II neurons [1]: significantly reduced | duration of hypersensitivity after the last injection (WT mice): at least 10 days | withdrawal thresholds to tactile, noxious pressure and noxious heat stimuli (paclitaxel-treated rats): lower withdrawal thresholds | mRNA level of α2δ-2 or α2δ-3 in the DRG and dorsal spinal cord (α2δ-1): similar | α2δ-1-GluN1 complex in the dorsal spinal cord (α2δ-1): significantly higher | α2δ-1 and GluN1 protein levels in spinal synaptosomes (α2δ-1): significantly higher | α2δ-1 mRNA levels in the DRG and dorsal spinal cord (α2δ-1): substantially higher | α2δ-1 protein levels in the DRG and spinal cord (α2δ-1): much higher
SMILES: CC(=O)O[C@H]1C(=O)[C@@]2(C)[C@H]([C@H](OC(=O)c3ccccc3)[C@]3(O)C[C@H](OC(=O)[C@H](O)[C@@H](NC(=O)c4ccccc4)c4ccccc4)C(C)=C1C3(C)C)[C@]1(OC(C)=O)CO[C@@H]1C[C@@H]2O [paclitaxel]
pain hypersensitivity after systemic paclitaxel (WT mice): induced tactile allodynia and heat and cold hyperalgesia
